Laboratory results taken from patent US20240299352A1, “COMBINATION THERAPIES WITH SETD2 INHIBITORS” (Epizyme, Inc., priority 2021, published 2024).

Legend:
[1] = test system: diffuse large B-cell lymphoma (DLBCL) cell lines; assay: Co-treatment combination study with Cpd. No. 15, further cell lines (Table F), CellTiter-Glo viability, Loewe Volume; assay type: cell-based; conditions: for Combination effect with Cpd. No. 15 (Loewe Volume class), Ri1: co-treatment with Cpd. No. 15, cell line Ri1 (Cat. No. 96090512-1VL); for Combination effect with Cpd. No. 15 (Loewe Volume class), TMD8: co-treatment with Cpd. No. 15, cell line TMD8 (Cat. No. M-097); for Combination effect with Cpd. No. 15 (Loewe Volume class), WILL1: co-treatment with Cpd. No. 15, cell line WILL1 (Cat. No. ACC 651)
Method: (§1) Mantle cell lymphoma (MCL) and diffuse large B-cell lymphoma (DLBCL) cell line cultures in log-linear growth rate were treated with combinations of Cpd. No. 15 and combination partners according to a co-treatment model. […] No. 15 and the combination partner. […] Each combination was tested in quadruplicate wells. The final concentration of DMSO (vehicle) in the assay was 0.1% v/v. Fifty microliters of cell line suspension were directly dispensed to the assay-ready plates with an automated multichannel dispenser on to 384-well assay-ready plates. Assay plates were incubated for seven days unless otherwise indicated in a humidified atmosphere of 5% CO2 at 37° C. Quantification of the effect of single agents or combinations on cell viability was performed through measurement of cellular adenosine triphosphate (ATP) using a CellTiter-Glo® (Promega, Madison, WI) Luminescent Cell Viability Assay. Luminescence was detected using a SpectraMax M5 microplate reader (Molecular Devices, Sunnyvale, CA). Concentration response plots were generated in GraphPad Prism version 7.0 for Windows, GraphPad Software, (La Jolla, California) and curves fitted to a four-parameter logistic model with variable slope. Percent of inhibition was calculated at each treatment concentration.

HT = assay: Co-treatment combination study with Cpd. No. 15, CellTiter-Glo viability, Loewe Volume; assay type: cell-based; conditions: in combination with Cpd. No. 15, seven days, DLBCL cell line HT
Method: as §1

DB = assay: as above; assay type: cell-based; conditions: in combination with Cpd. No. 15, seven days, DLBCL cell line DB
Method: as §1

DOHH2 = assay: as above; assay type: cell-based; conditions: in combination with Cpd. No. 15, seven days, DLBCL cell line DOHH2
Method: as §1

SUDHL10 = assay: as above; assay type: cell-based; conditions: in combination with Cpd. No. 15; 5-Day Cotreatment; DLBCL cell line SUDHL10
Method: as §1

SUDHL5 = assay: as above; assay type: cell-based; conditions: in combination with Cpd. No. 15, seven days, DLBCL cell line SUDHL5
Method: as §1

RL = assay: as above; assay type: cell-based; conditions: in combination with Cpd. No. 15; 6-Day Cotreatment; DLBCL cell line RL
Method: as §1

SUDHL6 = assay: as above; assay type: cell-based; conditions: in combination with Cpd. No. 15, seven days, DLBCL cell line SUDHL6
Method: as §1

Pfeiffer = assay: as above; assay type: cell-based; conditions: in combination with Cpd. No. 15, seven days, DLBCL cell line Pfeiffer
Method: as §1

WSUDLCL2 = assay: as above; assay type: cell-based; conditions: in combination with Cpd. No. 15, seven days, DLBCL cell line WSUDLCL2
Method: as §1

SUDHL4 = assay: as above; assay type: cell-based; conditions: in combination with Cpd. No. 15, seven days, DLBCL cell line SUDHL4
Method: as §1

TOLEDO = assay: as above; assay type: cell-based; conditions: in combination with Cpd. No. 15, seven days, DLBCL cell line TOLEDO
Method: as §1

WSUNHL = assay: as above; assay type: cell-based; conditions: in combination with Cpd. No. 15, seven days, DLBCL cell line WSUNHL
Method: as §1

KARPAS422 = assay: as above; assay type: cell-based; conditions: in combination with Cpd. No. 15, seven days, DLBCL cell line KARPAS422
Method: as §1

WILL2 = assay: as above; assay type: cell-based; conditions: in combination with Cpd. No. 15, seven days, DLBCL cell line WILL2
Method: as §1

SUDHL8 = assay: as above; assay type: cell-based; conditions: in combination with Cpd. No. 15, seven days, DLBCL cell line SUDHL8
Method: as §1

SUDHL2 = assay: as above; assay type: cell-based; conditions: in combination with Cpd. No. 15, seven days, DLBCL cell line SUDHL2
Method: as §1

[2] = test system: diffuse large B-cell lymphoma (DLBCL) cell lines; assay: Pre-treatment model combination study with Cpd. No. 15 (7 days pre-treatment, then combination; Table G), CellTiter-Glo viability, Loewe Volume; conditions: 7 days pre-treatment with Cpd. No. 15, then combination
REC1 = assay: Co-treatment combination study with Cpd. No. 15, CellTiter-Glo viability, Loewe Volume; assay type: cell-based; conditions: in combination with Cpd. No. 15, seven days, mantle cell lymphoma cell line REC1 (CRL-3004)
Method: as §1

Z138 = assay: as above; assay type: cell-based; conditions: in combination with Cpd. No. 15, seven days, mantle cell lymphoma cell line Z138 (CRL-3001)
Method: as §1

MINO = assay: as above; assay type: cell-based; conditions: in combination with Cpd. No. 15, seven days, mantle cell lymphoma cell line MINO (CRL-3000)
Method: as §1

GRANTA519 = assay: as above; assay type: cell-based; conditions: in combination with Cpd. No. 15, seven days, mantle cell lymphoma cell line GRANTA519 (ACC 342)
Method: as §1

JVM2 = assay: as above; assay type: cell-based; conditions: in combination with Cpd. No. 15, seven days, mantle cell lymphoma cell line JVM2 (CRL-3002)
Method: as §1

JEKO1 = assay: as above; assay type: cell-based; conditions: in combination with Cpd. No. 15, seven days, mantle cell lymphoma cell line JEKO1 (CRL-3006)
Method: as §1

MAVER1 = assay: as above; assay type: cell-based; conditions: in combination with Cpd. No. 15, seven days, mantle cell lymphoma cell line MAVER1 (CRL-3008)
Method: as §1

| Compound | Combination effect with Cpd. No. 15 (Loewe Volume class), Ri1 [1] | Combination effect with Cpd. No. 15 (Loewe Volume class), TMD8 [1] | Combination effect with Cpd. No. 15 (Loewe Volume class), WILL1 [1] | Combination effect (Loewe Volume) HT (HT) | Combination effect (Loewe Volume) DB (DB) | Combination effect (Loewe Volume) DOHH2 (DOHH2) | Combination effect (Loewe Volume) SUDHL10 (SUDHL10) | Combination effect (Loewe Volume) SUDHL5 (SUDHL5) | Combination effect (Loewe Volume) RL (RL) | Combination effect (Loewe Volume) SUDHL6 (SUDHL6) | Combination effect (Loewe Volume) Pfeiffer (Pfeiffer) | Combination effect (Loewe Volume) WSUDLCL2 (WSUDLCL2) | Combination effect (Loewe Volume) SUDHL4 (SUDHL4) | Combination effect (Loewe Volume) TOLEDO (TOLEDO) | Combination effect (Loewe Volume) WSUNHL (WSUNHL) | Combination effect (Loewe Volume) KARPAS422 (KARPAS422) | Combination effect (Loewe Volume) WILL2 (WILL2) | Combination effect (Loewe Volume) SUDHL8 (SUDHL8) | Combination effect (Loewe Volume) SUDHL2 (SUDHL2) | also measured |
| --- | --- | --- | --- | --- | --- | --- | --- | --- | --- | --- | --- | --- | --- | --- | --- | --- | --- | --- | --- | --- |
| CNC[C@@H](O)COc1ccc(Cl)c(-c2nc(-c3c(C)noc3C)c(C)c(N3CC4(CCN(C(=O)OC)CC4)C3)n2)c1 [EPZ-2302] | Synergy (VLoewe>1: synergy) | Synergy (VLoewe>1: synergy) | Synergy (VLoewe>1: synergy) | Synergy (VLoewe>1: synergy) | No Effect | Synergy (VLoewe>1: synergy) | No Effect | Additivity (between 1 and −1: additivity) | Synergy (VLoewe>1: synergy) | Synergy (VLoewe>1: synergy) | No Effect | Synergy (VLoewe>1: synergy) | Synergy (VLoewe>1: synergy) | Synergy (VLoewe>1: synergy) | Synergy (VLoewe>1: synergy) | Synergy (VLoewe>1: synergy) | Synergy (VLoewe>1: synergy) | No Effect | Synergy (VLoewe>1: synergy) | – |
| Nc1ccn([C@@H]2O[C@H](CO)[C@@H](O)C2(F)F)c(=O)n1 [Gemcitabine, gemcitabine] | Additivity (between 1 and −1: additivity) | Additivity (between 1 and −1: additivity) | Additivity (between 1 and −1: additivity) | Additivity (between 1 and −1: additivity) | Additivity (between 1 and −1: additivity) | Additivity (between 1 and −1: additivity) | Additivity (between 1 and −1: additivity) | Additivity (between 1 and −1: additivity) | Additivity (between 1 and −1: additivity) | Additivity (between 1 and −1: additivity) | Additivity (between 1 and −1: additivity) | Additivity (between 1 and −1: additivity) | Additivity (between 1 and −1: additivity) | Additivity (between 1 and −1: additivity) | Additivity (between 1 and −1: additivity) | Additivity (between 1 and −1: additivity) | Additivity (between 1 and −1: additivity) | Additivity (between 1 and −1: additivity) | Additivity (between 1 and −1: additivity) | Combination effect with Cpd. No. 15 (Loewe Volume class), Farage ([2]; cell line Farage (Cat. No. CRL-2630)): Additivity (between 1 and −1: additivity); Combination effect with Cpd. No. 15 (Loewe Volume class), HT ([2]; cell line HT (Cat. No. CRL-2631)): Additivity (between 1 and −1: additivity); Combination effect with Cpd. No. 15 (Loewe Volume class), OCILY7 ([2]; cell line OCILY7 (Cat. No. ACC 688)): Additivity (between 1 and −1: additivity); Combination effect with Cpd. No. 15 (Loewe Volume class), SUDHL4 ([2]; cell line SUDHL4 (Cat. No. ACC 495)): Additivity (between 1 and −1: additivity); Combination effect with Cpd. No. 15 (Loewe Volume class), WILL2 ([2]; cell line WILL2 (Cat. No. ACC 652)): Additivity (between 1 and −1: additivity) |
| C=CC(=O)N1CCC[C@@H](n2nc(-c3ccc(Oc4ccccc4)cc3)c3c(N)ncnc32)C1 [Ibrutinib, ibrutinib] | – | – | – | No Effect | No Effect | Synergy (VLoewe>1: synergy) | No Effect | No Effect | Additivity (between 1 and −1: additivity) | Synergy (VLoewe>1: synergy) | No Effect | Additivity (between 1 and −1: additivity) | Synergy (VLoewe>1: synergy) | No Effect | Additivity (between 1 and −1: additivity) | No Effect | Additivity (between 1 and −1: additivity) | No Effect | No Effect | Combination effect (Loewe Volume) REC1 (REC1): Additivity (between 1 and −1: additivity); Combination effect (Loewe Volume) Z138 (Z138): No Effect; Combination effect (Loewe Volume) MINO (MINO): Synergy (VLoewe>1: synergy); Combination effect (Loewe Volume) GRANTA519 (GRANTA519): Additivity (between 1 and −1: additivity); Combination effect (Loewe Volume) JVM2 (JVM2): Additivity (between 1 and −1: additivity); Combination effect (Loewe Volume) JEKO1 (JEKO1): Synergy (VLoewe>1: synergy); Combination effect (Loewe Volume) MAVER1 (MAVER1): Synergy (VLoewe>1: synergy) |
